# Assay results as given in ChEMBL document CHEMBL5257136, “PROTAC Targeted Degradation of IRAK-4 as Potential Treatment in Cancer” (ACS Med Chem Lett, 2023).
# What was measured:
# Type in all cases: cell-based
# [1] = target: T1, Protein cereblon/Interleukin-1 receptor-associated kinase 4 (Homo sapiens) (UniProt Q9NWZ3+Q96SW2); assay: Binding affinity to CRBN/IRAK4 in human PBMC cells assessed as inhibition of R848-stimulated IL-6 production by measuring maximal efficacy incubated for 24 hrs by MSD analysis relative to control
# [2] = target: T1, Protein cereblon/Interleukin-1 receptor-associated kinase 4 (Homo sapiens); assay: Binding affinity to CRBN/IRAK4 in human PBMC cells assessed as inhibition of LPS-stimulated IL-6 production by measuring maximal efficacy incubated for 24 hrs by MSD analysis relative to control
# [3] = target: T2, Protein cereblon/Interleukin-1 receptor-associated kinase 4 (Homo sapiens, UniProt Q96SW2+Q9NWZ3); assay: Binding affinity to CRBN/IRAK4 in human PBMC cells assessed as inhibition of R848-stimulated IL-6 production incubated for 24 hrs by MSD analysis
# [4] = target: T2, Protein cereblon/Interleukin-1 receptor-associated kinase 4; assay: Binding affinity to CRBN/IRAK4 in human PBMC cells assessed as inhibition of LPS-stimulated IL-6 production incubated for 24 hrs by MSD analysis
# T2 sequence (Q9NWZ3 whole entry): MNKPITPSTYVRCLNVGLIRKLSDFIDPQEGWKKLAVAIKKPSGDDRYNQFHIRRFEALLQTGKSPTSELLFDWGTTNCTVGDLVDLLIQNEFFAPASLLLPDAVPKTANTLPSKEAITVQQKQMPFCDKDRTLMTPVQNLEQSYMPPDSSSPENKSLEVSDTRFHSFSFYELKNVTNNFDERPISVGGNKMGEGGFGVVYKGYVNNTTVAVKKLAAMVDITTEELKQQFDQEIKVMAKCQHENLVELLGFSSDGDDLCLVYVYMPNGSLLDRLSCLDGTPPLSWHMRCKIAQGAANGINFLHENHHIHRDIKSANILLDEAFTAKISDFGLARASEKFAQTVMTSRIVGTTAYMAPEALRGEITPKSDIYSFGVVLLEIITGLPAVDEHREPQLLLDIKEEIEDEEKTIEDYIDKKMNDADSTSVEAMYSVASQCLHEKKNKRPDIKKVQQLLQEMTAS
# T2 sequence (Q96SW2 whole entry): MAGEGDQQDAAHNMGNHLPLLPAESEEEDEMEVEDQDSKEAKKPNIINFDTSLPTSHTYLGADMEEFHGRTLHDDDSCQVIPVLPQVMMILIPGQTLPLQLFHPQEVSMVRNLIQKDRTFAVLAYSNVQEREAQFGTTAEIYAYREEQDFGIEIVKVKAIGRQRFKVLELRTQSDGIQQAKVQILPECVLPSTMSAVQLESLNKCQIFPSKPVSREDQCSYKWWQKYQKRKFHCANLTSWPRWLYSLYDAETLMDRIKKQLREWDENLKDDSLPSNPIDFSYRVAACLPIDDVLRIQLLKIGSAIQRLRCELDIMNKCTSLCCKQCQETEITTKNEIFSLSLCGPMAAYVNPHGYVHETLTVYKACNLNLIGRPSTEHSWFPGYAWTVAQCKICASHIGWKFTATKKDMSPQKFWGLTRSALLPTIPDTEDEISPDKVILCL
# T1 sequence (Q96SW2 whole entry, looked up): as the sequence (Q96SW2 whole entry) above
# T1 sequence (Q9NWZ3 whole entry, looked up): as the sequence (Q9NWZ3 whole entry) above
Emax [1],Emax [2],IC50 [3],IC50 [4],SMILES
> 90%,> 90%,≥ 10 nM,≥ 10 nM,CC(C)Oc1cc2c(cc1NC(=O)c1cnn3cccnc13)CN(C1CCN(C(C)(C)C3CN(c4ccc5c(c4)C(=O)N(C4CCC(=O)NC4=O)C5=O)C3)CC1)C2=O (stereo not given)
> 90%,> 90%,< 10 nM,< 10 nM,O=C1CCC(N2Cc3cc(N4CCC(CN5CCC(N6Cc7cc(NC(=O)c8cnn9cccnc89)c(N8CCC(N9CCC9)CC8)cc7C6=O)CC5)CC4)ccc3C2=O)C(=O)N1 (stereo not given)
> 90%,80%,< 10 nM,< 10 nM,O=C1CCC(N2Cc3ccc(N4CCC(CN5CCC(n6cc7cc(NC(=O)c8cnn9cccnc89)c(OCC8CC8)cc7n6)CC5)CC4)cc3C2=O)C(=O)N1 (stereo not given)
> 90%,70%,< 10 nM,≥ 10 nM,O=C1CCC(N2Cc3cc(N4CCC(CN5CCC(n6cc7cc(NC(=O)c8cnn9cccnc89)c(OCC(F)F)cc7n6)CC5)CC4)ccc3C2=O)C(=O)N1 (stereo not given)
80%,80%,≥ 10 nM,≥ 10 nM,O=C1CCC(N2C(=O)c3ccc(N4CCC(CN5CCC(N6Cc7cc(NC(=O)c8cnn9cccnc89)c(N8CCN(CC(F)F)CC8)cc7C6=O)CC5)CC4)cc3C2=O)C(=O)N1 (stereo not given)
> 90%,80%,< 10 nM,< 10 nM,O=C1CCC(N2Cc3c(ccc(N4CCC(CN5CCC(n6cc7cc(NC(=O)c8cnn9cccnc89)c(N8CCN(CC(F)F)CC8)cc7n6)CC5)CC4)c3F)C2=O)C(=O)N1 (stereo not given)
> 90%,80%,< 10 nM,< 10 nM,O=C1CCC(N2Cc3ccc(N4CC(F)(CN5CCC(N6Cc7cc(NC(=O)c8cnn9cccnc89)c(N8CCC(N9CCC9)CC8)cc7C6=O)CC5)C4)cc3C2=O)C(=O)N1 (stereo not given)
> 90%,> 90%,≥ 50 nM,≥ 10 nM,CC(C)Oc1cc2c(cc1NC(=O)c1cnn3cccnc13)CN(C1CCN(CC3(F)CN(c4ccc5c(c4F)CN(C4CCC(=O)NC4=O)C5=O)C3)CC1)C2=O (stereo not given)
> 90%,> 90%,< 10 nM,< 10 nM,O=C1CCC(N2Cc3ccc(N4CCC(CN5CCC(N6Cc7cc(NC(=O)c8cnn9cccnc89)c(N8CCC(N9CCC9)CC8)cc7C6=O)CC5)CC4)cc3C2=O)C(=O)N1 (stereo not given)
> 90%,80%,< 10 nM,< 10 nM,CC(C)Oc1cc2c(cc1NC(=O)c1cnn3cccnc13)CN(C1CCN(CC3CCN(c4ccc5c(c4)C(=O)N(C4CCC(=O)NC4=O)C5=O)CC3)CC1)C2=O (stereo not given)
